Results reported in patent US9714433B2, “Human pluripotent stem cells induced from undifferentiated stem cells derived from a human postnatal tissue” (Kyoto University, priority 2007, dated 2017).

How the values were obtained:
syngeneic C57BL/6N mice = assay: Teratoma formation of induced mouse pluripotent stem cells transplanted subcutaneously; format: in vivo; details: cells induced by three genes + MS-275; 2×10^7 cells/mouse subcutaneously; 34 days later; three germ layers observed
Experimental: From the extracted teratoma, slices were prepared, and differentiation potential into three germ layers was analyzed by immunological and histological staining (HE stain, alcian blue stain). As a result, GFAP-positive cells (the nervous system) and keratin producing cells (skin cells) as the ectodermic system, smooth muscle actin-positive cells (smooth muscle cells), bone tissues and cartilage tissues as the mesodermic system, and intestinal tract tissues (endodermal epithelium positive for MUC-1) as the endodermic system were observed.

mouse Nanog = assay: Nanog expression of colonies by quantitative PCR; format: cell-based; details: three genes + MS-275 0.1 or 1.0 μM; compared with alkaline phosphatase-negative colonies; FIG. 3
Experimental: The expression of target gene of each colony including an alkaline phosphatase-positive colonies was determined using quantitative PCR in the following manner. Colonies developed by the induction of pluripotent stem cells were harvested, and RNA was extracted using the Recoverall total nucleic acid isolation kit for FFPE (manufactured by Ambion). After synthesizing cDNA from the extracted RNA, the target gene was amplified using the Taqman Preamp mastermix (manufactured by Applied Biosystems). As the primers for quantitative PCR, the Taqman gene exprESsion assay (manufactured by Applied Biosystems) was used. […] Human Hprt: Hs99999909_m1, human Nanog: Hs02387400_g1, human Tert: Hs00162669_m1, Mouse Hprt: Mm01545399_m1, mouse Nanog: Ma02019550_s1. Then, the amount expressed of the Nanog gene was confirmed by quantitative PCR, and the expression of mouse Nanog of colonies of pluripotent stem cells having alkaline phosphatase activity was confirmed (FIG. 3).

[1] = test system: cells derived from mouse bone marrow; assay: Induction of mouse pluripotent stem cells by three gene introduction and MS-275 treatment (colony formation, alkaline phosphatase staining); format: cell-based
Experimental: Staining for confirming alkaline phosphatase activity which is a characteristic of pluripotent stem cells was conducted in the following manner. After removing the culture medium, a 10% formalin neutral buffer solution was added to wells, and cells were fixed at room temperature for 5 minutes. After washing with a phosphate buffer etc., a chromogenic substrate of alkaline phosphatase, 1 step NBT/BCIP (manufactured by Pierce) was added and reacted at room temperature for 20 to 30 minutes. Cells having alkaline phosphatase activity were all stained blue violet.
The primary culture cells derived from mouse bone marrow containing undifferentiated stem cells that had been stored frozen after preparing in a manner similar to Example 11 were plated at a concentration of 5×10^3 cells/cm^2 on a 24-well plastic plate (manufactured by Becton Dickinson) having the bottom which had been gelatin-coated with a 0.1% gelatin/phosphate buffer, and 2 ml each of the MAPC medium was added.
Eight hours later, the medium was removed, 2 ml each of the three gene (human Oct3/4, Sox2 and Klf4) retrovirus vector solution prepared as in Example 1 were added, and after further adding MS-275, a histone deacetylase inhibitor, at a final concentration of 1 or 0.1 μM, they were cultured at 37° C. for 14 hours. […]

Nc1ccccc1NC(=O)c1ccc(CNC(=O)OCc2cccnc2)cc1 [MS-275, N-(2-aminophenyl)-4-[N-(pyridine-3-yl-methoxycarbonyl)aminomethyl]benzamide]
teratoma formation (syngeneic C57BL/6N mice): teratoma that formed was extracted
expression of Nanog in alkaline phosphatase-positive colonies (mouse Nanog): significantly higher than the alkaline phosphatase-negative colonies
formation of pluripotent stem cell colonies ([1]; three genes (human Oct3/4, Sox2, Klf4) retrovirus + MS-275 1 or 0.1 μM, fifteen days after): formed colonies composed of mouse ES cell-like small cells
alkaline phosphatase activity staining of colonies ([1]; three genes + MS-275 1 or 0.1 μM): stained blue violet by alkaline phosphatase activity
